Assay results reported in US9889180B2, “Method of treating cancer” (Agency for Science, Technology and Research, priority 2012, dated 2018).

What was measured:
IFNGR1 expression = test: qRT-PCR of IFNGR1 and IFNAR1 in RWPE1-MYC cells; format: cell-based, human
Protocol: Target-specific siRNA and non-targeting control siRNA were purchased from 1st Base Singapore and Integrated DNA technologies (IDT) with the following target sequences respectively: EZH2 siRNA: 5′-GACUCUGAAUGCAGUUGCU-3′ (SEQ ID NO: 1); MYC siRNA: 5′-[…]-3′ (SEQ ID NO:2). All siRNA were designed by 1st Base Singapore and IDT respectively. For transfection, 30 nM siRNAs were used to transfect cells. 48 h after transfection cell pellets were collected and subjected indicated assays.
Total RNA was isolated by using Trizol (Invitrogen) and purified with the RNeasy Mini Kit (Qiagen). The microarray hybridization was performed using the Illumina Gene Expression Sentrix BeadChip HumanRef-8_V3, and data analysis was performed by GeneSpring software from Agilent Technologies as described previously. The analyzed gene sets by GeneSpring were next subjected to Ingenuity Pathway Analysis (IPA) for gene ontology (GO) analysis. Reverse transcription and quantitative PCR assays were performed using High Capacity cDNA Archive kit and KAPA SyBr Fast qPCR kit (KAPA biosystems). For quantification of mRNA levels, 18S level was used as an internal control. All reactions were analyzed in an Applied Biosystems PRISM 7500 Fast Real-Time PCR system in 96-well plate format.

[1] = tested on: DU145-derived prostatospheres; test: Prostatosphere formation assay, DU145; format: cell-based, human; settings: EZH2 knockdown in combination with IFN-γ, 7 days
Protocol: Prostatospheres were generated according to protocols known to the skilled person in the art. In order to obtain prostatospheres from either DU145 or LNCaP, exponentially growing cultures were dissociated to single cells by standard trypsinization, washed three times with PBS and plated at a density of 1×10^4 cells/well in 6-well ultra-low attachment plates (Corning) containing 3 ml of SCM medium (DMEM:F12 plus 10 ng/mL bFGF, 20 ng/mL EGF, […], and 0.4% BSA) supplemented with 1% KO serum replacement (Invitrogen/Gibco). The cells were treated with DZNep or IFN-γ as indicated the next day and cultured for 7 days. 7 days old prostatospheres formed were stained with 4 μg/ml p-Iodonitrotetrazolium Violet (INT) overnight and were counted and analyzed using a GelCount™ automatic plate scanner (Oxford Optronics) and GelCount Version 0.025.1 software (Oxford Optronics). Plates were scanned at 1200 dpi and the colony detection algorithm was optimized for each cell type and culture time.

DU145 xenograft tumor = DU145 xenograft tumor growth in male athymic nude mice; format: in vivo; settings: IFN-γ 1×10^7 IU/kg i.p. daily, DZNep 1 mg/kg s.c. every alternating day, 38 days
Protocol: For in vivo evaluation of DZNep and IFN-γ treatment, the experiments were conducted in compliance with animal protocol approved by the ASTAR-Biopolis Institutional Animal Care and Use Committee (IACUC) of Singapore. DU145 cells were subcutaneously injected into 6-8 week male nude mice at 5×10^6 cells, followed by treatment with vehicle, IFN-γ (1×10^7 IU/kg) alone, DZNep (1 mg/kg) alone or combined DZNep (1 mg/kg) with IFN-γ (1×10^7IU/kg). IFN-γ was administered by intraperitoneal injection daily and DZNep by subcutaneous injection on every alternating day over a duration of 38 days after average tumor size reached around 150 mm^3. Tumors were measured by vernier calliper at least twice per week and tumors volume was calculated with formula: V=W*W*L/2. Each xenograft treatment arm comprised of 5-8 mice. Differences among groups and treatments were determined by ANOVA followed by t tests. (***p<0.001, n.s=not significant) Error bars represent means±s.e.m

RWPE1-PI3K cells = test: FACS cell death analysis in RWPE1-PI3K cells; format: cell-based, human; settings: DZNep (2.5 μM) for 3 days with increasing doses of IFN-γ
Protocol: For the assessment of cell death, cells were harvested in 70% ethanol. Fixed cells were stained with Propidium Iodide (P.I) (50 μg/mL). The stained cells were analyzed for DNA content by FACS in a FACSCalibur (Becton Dickinson Instrument). % of cell death was defined as the sub-G1 population quantified using the CellQuest software (Becton Dickinson). The percentage of dead cells or sub-G1 cells was calculated by comparing the results of each experiment to the results from DMSO-treated cells. Each assay was repeated a minimum of three times, with results reported as means+s.e.m.

[2] = tested on: EZH2 and IFNGR1 expression; test: Immunohistochemistry of EZH2 and IFNGR1 in DU145 xenograft tumors; format: in vivo; settings: tumors resected from treated mice
Protocol: Tissue microarray slides (PR956, BR1503b, LC2083, and LV6161) were purchased from US Biomax. Staining and image analysis of tissue microarray were performed by Histopathology Department from Institute of Molecular and Cell Biology, Agency for Science, Technology, and Research (A*STAR), Singapore. Anti-EZH2 (D2C9 XP) antibody was purchased from Cell Signaling, anti-MYC (9E10) and anti-IFNGR1 antibody (GIR-94) was purchased from Santa Cruz Biotechnology. Briefly, five-micron paraffin-embedded tissue sections cut, deparaffinized, rehydrated, antigens were retrieved by Proteinase K solution; sections were then incubated in 3% H2O2 at room temperature to block endogenous peroxidase. Slides were incubated in primary antibody against EZH2 or IFNGR1 for 45 mins followed by 30 min incubation with anti-mouse Labelled Polymer (Dako, Calif.). Specificity of the immunostaining was determined by the inclusion of isotype-specific IgG as negative control. […]
For in vivo evaluation of DZNep and IFN-γ treatment, the experiments were conducted in compliance with animal protocol approved by the ASTAR-Biopolis Institutional Animal Care and Use Committee (IACUC) of Singapore. […] Tumors were measured by vernier calliper at least twice per week and tumors volume was calculated with formula: V=W*W*L/2. […] Differences among groups and treatments were determined by ANOVA followed by t tests. […]

IFNGR1 promoter = test: ChIP analysis of EZH2 and H3K27me3 enrichments at IFNGR1 in DU145 cells; format: cell-based, human; settings: DZNep (2.5 μM), 3 days
Protocol: ChIP assays were performed as described previously. […] The immunoprecipitated DNA was quantified by quantitative real-time PCR using KAPA SyBr Fast qPCR kit (KAPA biosystems) with the specific ChIP primers as listed in the Table 4. Quantification of binding to the promoter was defined as the percentage of the whole cell lysate input DNA. The fold enrichment was derived by normalizing the specific antibody enriched against the IgG-enriched chromatin. CNR1 serves a positive control and Actin is a negative control. Significance of target genes was assessed relative to Actin level.

| Compound | IFNGR1 expression after knockdown (IFNGR1 expression) | tumorsphere formation after knockdown [1] | xenograft tumor growth (DU145 xenograft tumor) | induction of apoptosis / cell death (RWPE1-PI3K cells) | EZH2 expression in tumors (IHC) [2] | IFNGR1 expression in tumors (IHC) [2] | EZH2 and H3K27me3 enrichments at the IFNGR1 gene promoter (IFNGR1 promoter) |
| --- | --- | --- | --- | --- | --- | --- | --- |
| EZH2 knockdown: EZH2 siRNA: 5′-GACUCUGAAUGCAGUUGCU-3′ (SEQ ID NO: 1) (other strand not given here) | restore the expression of IFNGR1 | efficiently inhibited the tumorsphere formation |  |  |  |  |  |
| Cl.Nc1nccc2c1ncn2[C@@H]1C=C(CO)[C@@H](O)[C@H]1O [DZNep, (−)-1-[(1R,4R,5S)-3-(Hydroxymethyl)-4,5-dihydroxy-2-cyclopenten-1-yl]4-aminoimidazo[4,5-c]pyridine hydrochloride] |  |  | slowed down the tumor growth | but not RWPE1-PI3K cells | downregulation of EZH2 | upregulation of IFNGR1 | reduced both EZH2 and H3K27me3 enrichments |
